Laboratory results published in PMC3506555, “[^11C]phenytoin revisited: synthesis by [^11C]CO carbonylation and first evaluation as a P-gp tracer in rats” (EJNMMI Research, 2012).

How the values were obtained:
P-gp = test system: P-gp; set-up: method as in PMID 14642487, PMID 16857389, PMID 15961982, PMID 18783208, PMID 19647170; settings: rat and human brain; cited from earlier work
[1] = Observation of animals after probenecid administration; format: in vivo; settings: probenecid 150 mg·kg^−1 i.v., during 30 to 40 min after administration

| Compound | Brain-to-plasma equilibrium concentration ratio (VT) at baseline (P-gp) | Breathing frequency after administration [1] |
| --- | --- | --- |
| [11CH3]NC(=O)C(CCN1CCC(O)(c2ccc(Cl)cc2)CC1)(c1ccccc1)c1ccccc1 [^11C]desmethyl loperamide] | about 1 |  |
| COC(=O)c1cnc2n1CCc1ccccc1C2=C1CCN(CCc2ccc(OCc3ccc4ccccc4n3)cc2)CC1 [^11C]laniquidar] | about 1 |  |
| COc1cc2c(cc1OC)CN(CCc1ccc(NC(=O)c3cc(O[11CH3])c(OC)cc3NC(=O)c3cnc4ccccc4c3)cc1)CC2 [^11C]tariquidar] | about 1 |  |
| CCCN(CCC)S(=O)(=O)c1ccc(C(=O)O)cc1 [probenecid] |  | severely depressed breathing frequency |
